Assay results reported in patent US8545834B2, “G-substrate for the treatment and prevention of parkinson's disease” (The McLean Hospital Corporation, priority 2007, dated 2013).

Test system: Akt, GSK3β
Test: In vivo Akt and GSK3β phosphorylation, Western blot of substantia nigra and striata
Set-up: species or system rat
Settings: rats
Experimental: The in vivo effect of G-substrate overexpression on Akt and GSK3β phosphorylation was investigated. Substantia nigra (FIG. 12R) and striata (FIG. 12T) of the control (empty vector) lentivirus and G-substrate injected were dissected and a Western blot analysis was performed.
Animals were deeply anesthetized with an i.p. injection sodium pentobarbital and were sacrificed by exsanguination with the aid of ice-cold saline perfusion. For immunohistochemistry, the brains were then fixed with a 4% paraformaldehyde solution. The brains were then removed from the skull and placed in fresh 4% paraformaldehyde solution for 1 h, and equilibrated through 20% and 30% sucrose solutions and refrigerated until cutting for immunohistochemistry. For immunoblotting, brains injected with lenti-empty vector+lenti-eGFP (n=10) or lenti-G substrate+lenti-eGFP (n=10) were rapidly removed after saline perfusion and sliced coronally using a tissue chopper set to 1 mm (Campden Instruments Ltd., Lafayette, Ind.). On an inverted glass Petri dish over ice, regions of interest (striatum and substantia nigra region) were dissected from the individual 1 mm tissue slices, frozen on dry ice, and stored at −80° C.
Cells and tissue samples were collected from and suspended in lysis buffer containing: 50 mM Tris-HCl, 0.15 M NaCl, 0.32 M sucrose, 1.0 mM EDTA, and 1% NP-40. In addition, phosphatase inhibitors I and II (1:100) and protease inhibitors (1:100) were added fresh prior to cell lysis (Sigma-Aldrich, P2850, P5276, and P8340 respectively). Following cell lysis, the homogenate was centrifuged, a portion of the supernatant was reserved for protein determination (BCA Assay, Pierce, Rockford, Ill.) and the remaining was stored at −20° C. 20 μg (in vitro cell preps) and 50 μg (tissue dissections) of solubilized protein were mixed 1:1 with sample buffer and boiled for 5 min. The samples and molecular weight standards were separated using the Criterion precast 10% SDS-polyacrylamide gel system (Bio-Rad, Hercules, Calif.). […]

[1] = G-substrate versus control lentivirus

G-substrate: human wild type G-substrate (SEQ ID NO.: 1) overexpressed from a lentiviral vector
pAkt levels (substantia nigra and striata, compared to control lentivirus): 1.38 fold | level of pGSK3β in the SN [1]: unchanged | level of pGSK3β in the striatum [1]: modestly but significantly higher
